From patent publication US9040527B2, “Pyrimidinediamine kinase inhibitors” (Rigel Pharmaceuticals, Inc., priority 2008, dated 2015)

Experiments:
PLK1 [1] = biological target: T1, PLK1 (Homo sapiens, UniProt P53350); experiment: Cellular PLK1 assay in K562 cells overexpressing CDC25C; assay type: cell-based; design: endogenous in cells; host or cells: K562 (human chronic myelogenous leukemia) overexpressing CDC25C, nocodazole-arrested; settings: nocodazole arrested, cdc25c p-Ser198 readout
Procedure, shortened: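 K562 cells overexpressing CDC25C were arrested with 333 nM nocodazole for 18 h at 37 °C, then exposed to compound at 8 points from 10 μM to 0.005 μM in duplicate for 120 min. After fixation and permeabilization, cells were stained for cdc25c pSer198 with a PE secondary and read by flow cytometry, 10,000 cells per well.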

PLK1 [2] = biological target: T1, PLK1; experiment: In vitro PLK1 ELISA assay (biochemical); design: purchased Cell Signalling 7728
Procedure, shortened: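 Commercial PLK1 phosphorylates neutravidin-captured biotinylated CHK2 peptide for 45 min at room temperature in HEPES pH 7.2 with Mg2+/Mn2+/DTT, compounds at 10 μM to 0.005 μM. Phospho-CHK2(T68) antibody plus HRP secondary gives chemiluminescent read-out used for IC50.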

[3] = ELISA, CHK2-derived peptide substrate, read-out: PLK1 IC50 (μM) biochemical assay
[4] = read-out: IC50 in biochemical in vitro PLK1 ELISA assay (less than 10 μM)

T1 sequence (P53350 whole entry): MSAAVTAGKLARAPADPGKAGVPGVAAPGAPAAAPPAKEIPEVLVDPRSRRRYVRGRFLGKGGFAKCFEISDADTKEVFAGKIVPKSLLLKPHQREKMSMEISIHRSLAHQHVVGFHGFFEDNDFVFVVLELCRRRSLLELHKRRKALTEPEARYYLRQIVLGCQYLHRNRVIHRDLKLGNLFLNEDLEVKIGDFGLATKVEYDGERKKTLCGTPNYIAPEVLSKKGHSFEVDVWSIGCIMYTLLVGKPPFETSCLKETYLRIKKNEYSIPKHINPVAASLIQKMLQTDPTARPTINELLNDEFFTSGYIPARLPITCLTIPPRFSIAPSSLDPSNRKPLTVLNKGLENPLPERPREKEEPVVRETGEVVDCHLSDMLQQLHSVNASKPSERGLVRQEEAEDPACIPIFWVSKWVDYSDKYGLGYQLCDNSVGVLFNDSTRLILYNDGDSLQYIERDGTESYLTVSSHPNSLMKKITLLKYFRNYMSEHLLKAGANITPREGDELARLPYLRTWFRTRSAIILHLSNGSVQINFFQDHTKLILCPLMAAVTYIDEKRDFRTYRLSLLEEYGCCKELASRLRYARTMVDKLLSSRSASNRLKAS

Row | Structure (SMILES) | IC50 (PLK1 [1]) | IC50 (PLK1 [2]; [3]) | IC50 (PLK1 [2]; [4])
1 | Cc1cc(Nc2ncc(C)c(Nc3ccc4c(n3)NC(=O)C(C)(C)O4)n2)ccc1N1CCN(C)CC1 [compound 96, 2,2-dimethyl-6-(5-methyl-2-(3-methyl-4-(4-methylpiperazin-1-yl)phenylamino)pyrimidin-4-ylamino)-2H-pyrido[3,2-b][1,4]oxazin-3(4H)-one] | ≥ 10 µM | 5 to 10 µM | < 10 µM
2 | CN1CCN(c2cccc(Nc3ncc(F)c(Nc4ccc5c(n4)N(CC4CC4)C(=O)CO5)n3)c2)CC1 [compound 108, 4-(cyclopropylmethyl)-6-(5-fluoro-2-(3-(4-methylpiperazin-1-yl)phenylamino)pyrimidin-4-ylamino)-2H-pyrido[3,2-b][1,4]oxazin-3(4H)-one] | 0.5 to 5 µM | < 0.5 µM | < 10 µM
3 | CN1CCN(c2cccc(Nc3ncc(F)c(Nc4ccc5c(n4)N(CC4CCC4)C(=O)CO5)n3)c2)CC1 [compound 109, 4-(cyclobutylmethyl)-6-(5-fluoro-2-(3-(4-methylpiperazin-1-yl)phenylamino)pyrimidin-4-ylamino)-2H-pyrido[3,2-b][1,4]oxazin-3(4H)-one] | 0.5 to 5 µM | < 0.5 µM | < 10 µM
4 | CN1CCN(c2cccc(Nc3ncc(F)c(Nc4ccc5c(n4)N(CC4CCCCC4)C(=O)CO5)n3)c2)CC1 [compound 110, 4-(cyclohexylmethyl)-6-(5-fluoro-2-(3-(4-methylpiperazin-1-yl)phenylamino)pyrimidin-4-ylamino)-2H-pyrido[3,2-b][1,4]oxazin-3(4H)-one] | ≥ 10 µM | 5 to 10 µM | < 10 µM
5 | Cc1cc(Nc2ncc(F)c(Nc3ccc4c(n3)N(CC3CCC3)C(=O)CO4)n2)ccc1N1CCN(C)CC1 [compound 112, 4-(cyclobutylmethyl)-6-(5-fluoro-2-(3-methyl-4-(4-methylpiperazin-1-yl)phenylamino)pyrimidin-4-ylamino)-2H-pyrido[3,2-b][1,4]oxazin-3(4H)-one] | ≥ 10 µM | ≥ 10 µM | 
6 | Cc1cc(Nc2ncc(F)c(Nc3ccc4c(n3)N(CC3CCCCC3)C(=O)CO4)n2)ccc1N1CCN(C)CC1 [compound 113, 4-(cyclohexylmethyl)-6-(5-fluoro-2-(3-methyl-4-(4-methylpiperazin-1-yl)phenylamino)pyrimidin-4-ylamino)-2H-pyrido[3,2-b][1,4]oxazin-3(4H)-one] | ≥ 10 µM | ≥ 10 µM | 
7 | Cc1cc(Nc2ncc(C)c(Nc3ccc4c(n3)N(CC3CC3)C(=O)CO4)n2)ccc1N1CCN(C)CC1 [compound 114, 4-(cyclopropylmethyl)-6-(5-methyl-2-(3-methyl-4-(4-methyl-piperazin-1-yl)phenylamino)pyrimidin-4-ylamino)-2H-pyrido[3,2-b][1,4]oxazin-3(4H)-one] | ≥ 10 µM | 0.5 to 5 µM | < 10 µM

The remaining lines, values ahead:

Row | IC50 (PLK1 [1]) | IC50 (PLK1 [2]; [3]) | IC50 (PLK1 [2]; [4]) | Structure (SMILES)
8 | 0.5 to 5 µM | < 0.5 µM | < 10 µM | CCCN1C(=O)COc2ccc(Nc3nc(Nc4ccc(N5CCN(C)CC5)c(C)c4)ncc3C)nc21 [compound 97, 6-(5-methyl-2-(3-methyl-4-(4-methylpiperazin-1-yl)phenylamino)pyrimidin-4-ylamino)-4-propyl-2H-pyrido[3,2-b][1,4]oxazin-3(4H)-one]
9 | 0.5 to 5 µM | < 0.5 µM | < 10 µM | CCN1C(=O)COc2ccc(Nc3nc(Nc4ccc(N5CCN(C)CC5)nc4)ncc3C)nc21 [compound 101, 4-ethyl-6-(5-methyl-2-(6-(4-methylpiperazin-1-yl)pyridin-3-ylamino)pyrimidin-4-ylamino)-2H-pyrido[3,2-b][1,4]oxazin-3(4H)-one]
10 | 0.5 to 5 µM | < 0.5 µM | < 10 µM | CCCN1C(=O)COc2ccc(Nc3nc(Nc4ccc(N5CC6CC5CN6C)c(C)c4)ncc3C)nc21 (stereo not shown) [compound 107, 6-(5-methyl-2-(3-methyl-4-(5-methyl-2,5-diazabicyclo[2.2.1]heptan-2-yl)phenylamino)pyrimidin-4-ylamino)-4-propyl-2H-pyrido[3,2-b][1,4]oxazin-3(4H)-one]
